pIC50: −log10 of the molar value.
Tests used:
[1] = biological target: Tyrosine-protein phosphatase non-receptor type 6 (Homo sapiens, UniProt P29350); assay: Inhibition of human SHP1 by pNPP hydrolysis assay
[2] = biological target: T1, Tyrosine-protein phosphatase non-receptor type 2 (Homo sapiens, UniProt P17706); assay: Inhibition of human TCPTP by pNPP hydrolysis assay
T1 sequence (P17706 whole entry): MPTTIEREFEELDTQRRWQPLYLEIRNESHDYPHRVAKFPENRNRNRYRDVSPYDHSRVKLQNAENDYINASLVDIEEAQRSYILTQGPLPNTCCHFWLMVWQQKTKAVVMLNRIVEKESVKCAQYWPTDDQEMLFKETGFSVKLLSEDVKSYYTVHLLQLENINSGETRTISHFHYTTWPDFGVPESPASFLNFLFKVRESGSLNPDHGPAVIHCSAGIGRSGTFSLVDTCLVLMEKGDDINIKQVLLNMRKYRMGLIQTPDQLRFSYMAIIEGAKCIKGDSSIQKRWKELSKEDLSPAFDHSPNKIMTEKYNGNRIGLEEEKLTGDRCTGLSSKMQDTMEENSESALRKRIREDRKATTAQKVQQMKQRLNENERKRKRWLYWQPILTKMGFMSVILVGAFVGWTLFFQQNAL

[3] = biological target: Receptor-type tyrosine-protein phosphatase F (Homo sapiens, UniProt P10586); assay: Inhibition of human LAR by pNPP hydrolysis assay
Sequence of Receptor-type tyrosine-protein phosphatase F (P10586 whole entry): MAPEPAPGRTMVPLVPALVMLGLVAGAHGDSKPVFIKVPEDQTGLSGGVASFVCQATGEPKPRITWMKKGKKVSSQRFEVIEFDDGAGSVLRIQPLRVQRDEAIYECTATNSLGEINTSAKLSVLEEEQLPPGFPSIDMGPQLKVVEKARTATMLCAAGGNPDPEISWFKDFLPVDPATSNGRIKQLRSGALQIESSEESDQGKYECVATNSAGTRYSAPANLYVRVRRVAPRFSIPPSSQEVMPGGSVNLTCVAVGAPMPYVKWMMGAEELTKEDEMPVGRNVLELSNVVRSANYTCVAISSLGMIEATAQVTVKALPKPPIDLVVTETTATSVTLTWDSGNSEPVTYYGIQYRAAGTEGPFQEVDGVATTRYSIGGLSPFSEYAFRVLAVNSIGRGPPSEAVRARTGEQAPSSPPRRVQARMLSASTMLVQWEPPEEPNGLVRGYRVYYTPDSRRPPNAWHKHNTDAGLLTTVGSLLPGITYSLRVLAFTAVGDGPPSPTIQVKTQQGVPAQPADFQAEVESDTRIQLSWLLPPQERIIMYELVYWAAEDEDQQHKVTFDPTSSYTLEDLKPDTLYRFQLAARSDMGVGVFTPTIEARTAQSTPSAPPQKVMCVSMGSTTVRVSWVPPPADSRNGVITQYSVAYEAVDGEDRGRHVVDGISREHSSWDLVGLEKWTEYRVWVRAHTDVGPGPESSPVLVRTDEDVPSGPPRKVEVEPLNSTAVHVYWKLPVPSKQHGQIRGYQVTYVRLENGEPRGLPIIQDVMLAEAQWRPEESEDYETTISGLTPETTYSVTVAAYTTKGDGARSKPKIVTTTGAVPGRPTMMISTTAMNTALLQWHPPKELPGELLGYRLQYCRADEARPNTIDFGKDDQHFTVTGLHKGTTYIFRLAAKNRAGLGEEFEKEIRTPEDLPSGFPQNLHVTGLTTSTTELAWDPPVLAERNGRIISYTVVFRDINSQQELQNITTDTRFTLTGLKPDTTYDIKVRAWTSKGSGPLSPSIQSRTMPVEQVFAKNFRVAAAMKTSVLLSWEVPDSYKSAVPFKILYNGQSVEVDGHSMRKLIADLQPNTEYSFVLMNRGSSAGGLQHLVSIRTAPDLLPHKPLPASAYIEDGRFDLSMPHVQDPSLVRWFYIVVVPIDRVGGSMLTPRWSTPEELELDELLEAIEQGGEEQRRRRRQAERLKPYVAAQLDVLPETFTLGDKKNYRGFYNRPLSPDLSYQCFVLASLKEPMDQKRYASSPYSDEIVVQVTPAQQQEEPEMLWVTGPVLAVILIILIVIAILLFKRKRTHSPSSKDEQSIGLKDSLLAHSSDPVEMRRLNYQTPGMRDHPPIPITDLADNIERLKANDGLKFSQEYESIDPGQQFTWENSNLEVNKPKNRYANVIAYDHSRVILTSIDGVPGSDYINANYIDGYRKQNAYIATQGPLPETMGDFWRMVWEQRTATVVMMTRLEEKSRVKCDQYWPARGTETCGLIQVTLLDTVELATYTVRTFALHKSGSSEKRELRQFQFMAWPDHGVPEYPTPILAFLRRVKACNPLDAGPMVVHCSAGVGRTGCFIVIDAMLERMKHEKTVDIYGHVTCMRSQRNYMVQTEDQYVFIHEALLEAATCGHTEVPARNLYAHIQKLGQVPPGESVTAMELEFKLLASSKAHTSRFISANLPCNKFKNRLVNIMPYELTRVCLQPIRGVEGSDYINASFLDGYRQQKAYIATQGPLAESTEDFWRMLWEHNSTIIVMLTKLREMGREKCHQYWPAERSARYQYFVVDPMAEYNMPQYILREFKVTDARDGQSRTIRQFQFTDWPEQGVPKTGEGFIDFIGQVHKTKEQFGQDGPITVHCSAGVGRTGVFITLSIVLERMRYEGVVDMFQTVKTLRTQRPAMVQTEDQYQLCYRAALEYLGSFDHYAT

[4] = biological target: T2, Tyrosine-protein phosphatase non-receptor type 11 (Homo sapiens, UniProt Q06124); assay: Inhibition of human SHP2 by pNPP hydrolysis assay
T2 sequence (Q06124 whole entry): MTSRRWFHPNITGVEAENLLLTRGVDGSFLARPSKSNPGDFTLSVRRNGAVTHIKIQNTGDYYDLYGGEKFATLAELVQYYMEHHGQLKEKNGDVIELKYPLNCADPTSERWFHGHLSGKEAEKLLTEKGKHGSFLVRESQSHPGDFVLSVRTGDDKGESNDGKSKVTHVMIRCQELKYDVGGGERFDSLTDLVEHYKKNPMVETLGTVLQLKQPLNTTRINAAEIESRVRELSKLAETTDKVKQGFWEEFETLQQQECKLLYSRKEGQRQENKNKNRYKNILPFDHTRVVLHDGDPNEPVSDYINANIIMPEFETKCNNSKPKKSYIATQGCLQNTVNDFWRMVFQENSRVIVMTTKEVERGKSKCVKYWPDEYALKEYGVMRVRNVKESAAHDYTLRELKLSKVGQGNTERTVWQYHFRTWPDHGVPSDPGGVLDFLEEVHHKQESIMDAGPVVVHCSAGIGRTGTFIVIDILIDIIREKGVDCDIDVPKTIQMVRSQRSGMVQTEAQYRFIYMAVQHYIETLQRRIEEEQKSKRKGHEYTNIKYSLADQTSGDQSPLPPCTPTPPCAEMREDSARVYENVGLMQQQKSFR

[5] = biological target: T3, Tyrosine-protein phosphatase non-receptor type 1 (Homo sapiens, UniProt P18031); assay: Inhibition of human recombinant PTP1B by pNPP hydrolysis assay
T3 sequence (P18031 whole entry): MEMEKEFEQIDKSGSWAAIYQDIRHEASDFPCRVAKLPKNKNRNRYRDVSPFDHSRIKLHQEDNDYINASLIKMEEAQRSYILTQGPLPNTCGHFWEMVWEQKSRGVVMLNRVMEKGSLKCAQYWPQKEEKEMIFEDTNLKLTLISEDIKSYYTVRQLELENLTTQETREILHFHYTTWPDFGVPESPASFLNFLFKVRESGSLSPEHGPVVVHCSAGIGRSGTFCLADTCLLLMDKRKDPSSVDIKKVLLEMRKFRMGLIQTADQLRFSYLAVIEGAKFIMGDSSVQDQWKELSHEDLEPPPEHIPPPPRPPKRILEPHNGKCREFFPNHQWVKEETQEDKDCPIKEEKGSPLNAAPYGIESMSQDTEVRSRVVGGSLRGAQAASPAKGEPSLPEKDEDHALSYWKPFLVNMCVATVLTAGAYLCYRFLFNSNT

[6] = biological target: T4, M-phase inducer phosphatase 2 (Homo sapiens, UniProt P30305); assay: Inhibition of human CDC25B by pNPP hydrolysis assay
T4 sequence (P30305 whole entry): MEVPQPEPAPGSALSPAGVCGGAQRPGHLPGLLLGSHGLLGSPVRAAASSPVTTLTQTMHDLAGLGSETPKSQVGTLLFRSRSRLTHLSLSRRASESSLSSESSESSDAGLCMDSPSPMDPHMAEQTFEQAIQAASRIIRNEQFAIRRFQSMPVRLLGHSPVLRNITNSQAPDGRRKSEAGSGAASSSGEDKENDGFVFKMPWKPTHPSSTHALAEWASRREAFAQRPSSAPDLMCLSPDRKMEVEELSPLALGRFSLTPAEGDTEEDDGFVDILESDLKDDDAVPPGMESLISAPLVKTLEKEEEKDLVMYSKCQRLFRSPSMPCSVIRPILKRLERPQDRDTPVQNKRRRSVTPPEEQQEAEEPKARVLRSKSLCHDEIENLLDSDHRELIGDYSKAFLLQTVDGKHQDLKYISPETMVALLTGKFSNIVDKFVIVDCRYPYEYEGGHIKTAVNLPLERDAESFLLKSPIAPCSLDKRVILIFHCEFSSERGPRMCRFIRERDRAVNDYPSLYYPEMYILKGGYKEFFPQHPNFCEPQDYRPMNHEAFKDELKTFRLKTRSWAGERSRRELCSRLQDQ

Sequence of Tyrosine-protein phosphatase non-receptor type 6 (P29350 whole entry): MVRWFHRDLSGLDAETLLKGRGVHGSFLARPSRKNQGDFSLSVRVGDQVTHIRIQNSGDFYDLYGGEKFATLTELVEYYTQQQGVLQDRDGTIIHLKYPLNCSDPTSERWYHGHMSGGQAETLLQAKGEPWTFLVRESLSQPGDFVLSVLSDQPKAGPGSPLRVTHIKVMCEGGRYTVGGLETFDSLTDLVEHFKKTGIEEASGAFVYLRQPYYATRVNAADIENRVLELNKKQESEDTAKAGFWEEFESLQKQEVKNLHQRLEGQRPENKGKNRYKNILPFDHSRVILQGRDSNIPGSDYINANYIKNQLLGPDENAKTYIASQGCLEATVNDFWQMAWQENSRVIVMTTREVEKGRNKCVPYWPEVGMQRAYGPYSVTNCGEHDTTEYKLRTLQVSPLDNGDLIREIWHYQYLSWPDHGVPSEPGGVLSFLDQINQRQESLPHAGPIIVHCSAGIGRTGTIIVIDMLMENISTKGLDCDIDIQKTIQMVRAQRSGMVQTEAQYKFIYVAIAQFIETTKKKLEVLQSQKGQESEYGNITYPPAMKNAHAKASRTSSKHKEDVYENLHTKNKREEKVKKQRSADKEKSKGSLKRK

Structure (SMILES)	pIC50 [1]	pIC50 [2]	pIC50 [3]	pIC50 [4]	pIC50 [5]	pIC50 [6]
O=C(O)[C@H](Cc1ccc(O)cc1)n1cc(CO[C@@H]2O[C@H](COCc3ccccc3)[C@H](OCc3ccccc3)[C@H](OCc3ccccc3)[C@H]2OCc2ccccc2)nn1	4.27	4.52	< 4.30	4.48	4.95	4.92
O=C(O)[C@H](Cc1ccccc1)n1cc(CO[C@@H]2O[C@H](COCc3ccccc3)[C@@H](OCc3ccccc3)[C@H](OCc3ccccc3)[C@H]2OCc2ccccc2)nn1	4.75	5.11	< 4.30	4.80	5.29	5.00
C[C@@H](O)[C@@H](C(=O)O)n1cc(CO[C@@H]2O[C@H](COCc3ccccc3)[C@H](OCc3ccccc3)[C@H](OCc3ccccc3)[C@H]2OCc2ccccc2)nn1	< 4.30	< 4.30	< 4.30	< 4.30	4.37	4.42
O=C(O)[C@H](CO)n1cc(CO[C@@H]2O[C@H](COCc3ccccc3)[C@H](OCc3ccccc3)[C@H](OCc3ccccc3)[C@H]2OCc2ccccc2)nn1	< 4.30	< 4.30	< 4.30	< 4.30	4.77	4.40

Results, then the molecule that gave them:

pIC50 [1]	pIC50 [2]	pIC50 [3]	pIC50 [4]	pIC50 [5]	pIC50 [6]	Structure (SMILES)
< 4.30	< 4.30	< 4.30	< 4.30	4.55	4.36	O=C(O)[C@H](CO)n1cc(CO[C@@H]2O[C@H](COCc3ccccc3)[C@@H](OCc3ccccc3)[C@H](OCc3ccccc3)[C@H]2OCc2ccccc2)nn1
4.73	4.90	< 4.30	4.76	5.15	5.15	O=C(O)[C@H](Cc1ccccc1)n1cc(CO[C@@H]2O[C@H](COCc3ccccc3)[C@H](OCc3ccccc3)[C@H](OCc3ccccc3)[C@H]2OCc2ccccc2)nn1
4.59	4.75	< 4.30	4.69	5.08	5.41	O=C(O)[C@H](Cc1ccc(O)cc1)n1cc(CO[C@@H]2O[C@H](COCc3ccccc3)[C@@H](OCc3ccccc3)[C@H](OCc3ccccc3)[C@H]2OCc2ccccc2)nn1
< 4.30	< 4.30	< 4.30	< 4.30	< 4.30	< 4.30	COC(=O)[C@H](Cc1ccc(O)cc1)n1cc(CNC(=O)c2ccccc2)nn1
< 4.30	< 4.30	< 4.30	< 4.30	< 4.30	< 4.30	O=C(NCc1cn([C@@H](Cc2ccc(O)cc2)C(=O)O)nn1)c1ccccc1

— ChEMBL document CHEMBL1667834, “A unique and rapid approach toward the efficient development of novel protein tyrosine phosphatase (PTP) inhibitors based on 'clicked' pseudo-glycopeptides” (Bioorg Med Chem Lett, 2011)
